In brackets after ≈: the same amount, converted by molar mass. Structures can show the parent of a compound that is named as a salt.
Tests used:
[1] = test system: Staphylococcus aureus; assay: microbe, parasite or virus in culture; conditions: ATCC 43300, 18 h, ASSAY_TEST Inhibition of Bacterial Growth, detection method Absorption (OD600), MEDIA CAMHB, plate type 384well, NBS, CORNING #3640
Description: Antibacterial activity against Staphylococcus aureus MRSA ATCC 43300 (CO-ADD:GP_020); MIC in CAMBH media, using NBS plates, by OD(600)

[2] = test system: Candida albicans; assay: microbe, parasite or virus in culture; conditions: ATCC 90028, ASSAY_TEST Inhibition of Fungal Growth, detection method Absorption (OD530), plate type 384well, NBS, CORNING #3640
Description: Antifungal activity against Candida albicans ATCC 90028 (CO-ADD:FG_001); MIC in YNB media using NBS plates, by OD630

[3] = test system: Pseudomonas aeruginosa; assay: microbe, parasite or virus in culture; conditions: ATCC 27853, 18 h, ASSAY_TEST Inhibition of Bacterial Growth, detection method Absorption (OD600), MEDIA CAMHB, plate type 384well, NBS, CORNING #3640
Description: Antibacterial activity against Pseudomonas aeruginosa ATCC 27853 (CO-ADD:GN_042); MIC in CAMBH media using NBS plates, by OD(600)

[4] = test system: Pseudomonas aeruginosa; assay: Antibacterial activity against Pseudomonas aeruginosa PAO397 [PAO1 d(mexAB-oprM) d(mexCD-oprJ) d(mexEF-oprN) d(mexJKL) d(mexXY) d(opmH)] (CO-ADD:GN_211); MIC in CAMBH media using NBS plates, by OD(600); assay type: functional; conditions: ASSAY_TEST Inhibition of Bacterial Growth, detection method Absorption (OD600), MEDIA CAMHB, plate type 384well, CORNING #3640, time 18 hr
[5] = test system: Cryptococcus neoformans
Description: Antifungal activity against Cryptococcus neoformans H99 ATCC 208821 (CO-ADD:FG_002); MIC in YNB media using NBS plates, by Resazurin OD(600-570)

[6] = test system: HEK293; assay: cells; assay type: functional, Homo sapiens, ATCC CRL1573; conditions: Homo sapiens, ATCC CRL1573, HEK293; ASSAY_TEST Inhibition of Cell Viability; detection method Resazurin; Fluorescence (ex560/em590); MEDIA DMEM with 10% FBS; plate type 384well; TC; CORNING #3712; time 18 hr; read-out: CC50
[7] = test system: Klebsiella pneumoniae; assay: microbe, parasite or virus in culture; conditions: ATCC 700603, 18 h, ASSAY_TEST Inhibition of Bacterial Growth, detection method Absorption (OD600), MEDIA CAMHB, plate type 384well, NBS, CORNING #3640
Description: Antibacterial activity against Klebsiella pneumoniae MDR ATCC 70063 (CO-ADD:GN_003); MIC in CAMBH media using NBS plates, by OD(600)

[8] = test system: Acinetobacter baumannii; assay: microbe, parasite or virus in culture; conditions: ATCC 19606, 18 h, ASSAY_TEST Inhibition of Bacterial Growth, detection method Absorption (OD600), MEDIA CAMHB, plate type 384well, NBS, CORNING #3640
Description: Antibacterial activity against Acinetobacter baumannii ATCC 19606 (CO-ADD:GN_034); MIC in CAMBH media using NBS plates, by OD600

[9] = test system: Escherichia coli; assay: microbe, parasite or virus in culture; conditions: ATCC 25922, 18 h, ASSAY_TEST Inhibition of Bacterial Growth, detection method Absorption (OD600), MEDIA CAMHB, plate type 384well, NBS, CORNING #3640
Description: Antibacterial activity against Escherichia coli ATCC 25922 (CO-ADD:GN_001); MIC in CAMBH media using NBS plates, by OD(600)

SMILES | MIC [1] [µM] | MIC [2] [µM] | MIC [3] [µM] | MIC [4] [µM] | MIC [5] [µM] | CC50 [6] [µM] | MIC [7] [µM] | MIC [8] [µM] | MIC [9] [µM]
C[C@H]1[C@@H](c2cccc(C(F)(F)F)c2)OC(=O)N1C(=O)NCc1cncc2ccccc12 | > 20 | > 20 | > 20 | > 20 | > 20 | > 20 | > 20 | > 20 | > 20
COc1ccc(OCc2ccc(COc3c(Cl)cccc3Cl)cc2)c(Cl)c1 | > 20 | > 20 | > 20 | > 20 | > 20 | > 20 | > 20 | > 20 | > 20
NC(=S)N/N=C/c1ncccc1N [TRIAPINE] | > 20 | > 20 | > 20 | 20 (≈ 3.91 µg/mL) | > 20 | 2.83 | > 20 | > 20 | > 20
N=C(N)NCCCCC(=O)Nc1cc(C(F)(F)F)cc(NC(=O)c2cc(C(=O)Nc3cc(C(F)(F)F)cc(NC(=O)CCCCNC(=N)N)c3O[C@@H]3CCNC3)ncn2)c1O[C@@H]1CCNC1 | ≤ 0.156 | > 20 | 10 (≈ 9.37 µg/mL) | 5 (≈ 4.68 µg/mL) | 0.312 (≈ 0.293 µg/mL) | > 20 | 2.5 (≈ 2.34 µg/mL) | 5 (≈ 4.68 µg/mL) | 1.25 (≈ 1.17 µg/mL)
CCOC(=O)/C=C/[C@H](C[C@@H]1CCNC1=O)NC(=O)[C@H](CC)n1cccc(NC(=O)c2cc(C)on2)c1=O | > 20 | > 20 | > 20 | > 20 | > 20 | > 20 | > 20 | > 20 | > 20
CCn1cc(C(=O)O)c(=O)c2cc(F)c(N3CCNC(C)C3)c(F)c21 (stereo unspecified) [LOMEFLOXACIN HYDROCHLORIDE] | 10 | > 20 | > 20 | 0.312 | > 20 | > 20 | 20 | 20 | 0.625
Oc1c(C(Nc2nc3ccccc3s2)c2ccc(OC(F)F)cc2)ccc2cccnc12 (stereo unspecified) | > 20 | > 20 | > 20 | > 20 | > 20 | 9.22 | > 20 | > 20 | > 20
CC[C@@]1(O)C(=O)OCc2c1cc1n(c2=O)Cc2cc3c([N+](=O)[O-])cccc3nc2-1 [RUBITECAN] | > 20 | > 20 | > 20 | > 20 | > 20 | 0.695 | > 20 | > 20 | > 20
CCCCOC(=O)Nc1cc2nc(C3CCCCC3)[nH]c2cc1N(CC)CC | > 20 | > 20 | > 20 | > 20 | > 20 | > 20 | > 20 | > 20 | > 20
Cc1nc(-c2ccc(C3N(C)c4ccc(F)cc4C(=O)N3c3ccccc3)s2)cs1 (stereo unspecified) | > 20 | > 20 | > 20 | > 20 | > 20 | > 20 | > 20 | > 20 | > 20
CN(C(=O)C1(c2ccc(Cl)cc2)CCC1)c1ccccc1 | > 20 | > 20 | > 20 | > 20 | > 20 | > 20 | > 20 | > 20 | > 20
Fc1ccc(-c2nc(-c3c[nH]c4ccc(Br)cc34)[nH]c2-c2ccc(F)cc2)cc1 | > 20 | > 20 | > 20 | > 20 | > 20 | 9.15 | > 20 | > 20 | > 20
CCc1cc(CCC(=O)Nc2ccccc2O)c(O)nc1C | > 20 | > 20 | > 20 | > 20 | > 20 | > 20 | > 20 | > 20 | > 20
O=C(NN1C(=O)[C@@H]2[C@@H]3C=C[C@@H]([C@H]4C[C@@H]34)[C@@H]2C1=O)c1ccc(C(F)(F)F)cc1 [TECOVIRIMAT] | > 20 | > 20 | > 20 | > 20 | > 20 | > 20 | > 20 | > 20 | > 20
N#CCN1C(=O)COc2cc(F)c(N3C(=O)c4ccccc4C3=O)cc21 | > 20 | > 20 | > 20 | > 20 | > 20 | > 20 | > 20 | > 20 | > 20
CC(C)Oc1cccc(NC(=O)c2ccccc2C(F)(F)F)c1 [FLUTOLANIL] | > 20 | > 20 | > 20 | > 20 | > 20 | > 20 | > 20 | > 20 | > 20
CCc1cc(Cc2cnc(N)nc2N)cc2c1N(C)CCC2C (stereo unspecified) | 10 (≈ 3.11 µg/mL) | > 20 | > 20 | > 20 | > 20 | > 20 | > 20 | > 20 | > 20
COc1ccc(C)cc1NC(=O)c1ccc(S(=O)(=O)N2CCCCC2)cc1 | > 20 | > 20 | > 20 | > 20 | > 20 | > 20 | > 20 | > 20 | > 20
O=c1cc(OCc2ccccc2)ccn1Cc1ccccc1 | > 20 | > 20 | > 20 | > 20 | > 20 | > 20 | > 20 | > 20 | > 20
CCC[C@H](NC(=O)[C@@H]1[C@H]2CCC[C@H]2CN1C(=O)[C@@H](NC(=O)[C@@H](NC(=O)c1cnccn1)C1CCCCC1)C(C)(C)C)C(=O)C(=O)NC1CC1 | > 20 | > 20 | > 20 | > 20 | > 20 | > 20 | > 20 | > 20 | > 20
OC1O[C@H](CSc2ccc(F)cc2)[C@@H](O)[C@H]1O (stereo partly specified) | > 20 | > 20 | > 20 | > 20 | > 20 | > 20 | > 20 | > 20 | > 20
COC(=O)Nc1nc2cc([S+]([O-])c3ccccc3)ccc2[nH]1 (stereo unspecified) [OXFENDAZOLE] | > 20 | > 20 | > 20 | > 20 | > 20 | > 20 | > 20 | > 20 | > 20
C(=C\c1nc2ccccc2[nH]1)/c1ccc2c(c1)OCO2 | > 20 | > 20 | > 20 | > 20 | > 20 | > 20 | > 20 | > 20 | > 20
O=C(Nc1ncc(Cc2cccc3ccccc23)s1)C1CCCCC1 | > 20 | > 20 | > 20 | > 20 | > 20 | > 20 | > 20 | > 20 | > 20

Reference: ChEMBL document CHEMBL4513161, “CO-ADD screening of MMV (CH) - Pandemic Response Box” (2021)
